{"source": "ChEMBL document CHEMBL1201862", "about": "“PubChem BioAssay data set” (2004)", "key": {"Mu-type opioid receptor": {"molecular_target": "Mu-type opioid receptor (Homo sapiens, UniProt P35372)", "sequence (P35372 whole entry)": "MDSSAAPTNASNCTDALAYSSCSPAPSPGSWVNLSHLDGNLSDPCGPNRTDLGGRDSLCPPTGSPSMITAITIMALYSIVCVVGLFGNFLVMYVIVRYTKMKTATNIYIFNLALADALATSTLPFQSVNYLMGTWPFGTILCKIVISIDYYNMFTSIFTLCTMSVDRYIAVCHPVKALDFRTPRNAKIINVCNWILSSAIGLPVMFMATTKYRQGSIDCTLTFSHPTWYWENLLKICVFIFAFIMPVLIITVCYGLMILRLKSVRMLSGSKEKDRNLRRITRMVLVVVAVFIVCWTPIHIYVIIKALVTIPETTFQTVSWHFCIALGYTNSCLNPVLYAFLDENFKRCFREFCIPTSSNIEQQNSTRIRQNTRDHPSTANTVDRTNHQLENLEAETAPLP", "test": "(§1) Counterscreen for agonists of heterodimerization of the mu 1 (OPRM1) and delta 1 (OPRD1) opioid receptors: Luminescence-based cell-based high throughput dose response assay to identify agonists of OPRM1 homodimerization.", "assay_type": "functional"}, "[1]": {"molecular_target": "T1, Short transient receptor potential channel 4 (Mus musculus, UniProt Q9QUQ5)", "T1 sequence (Q9QUQ5 whole entry)": "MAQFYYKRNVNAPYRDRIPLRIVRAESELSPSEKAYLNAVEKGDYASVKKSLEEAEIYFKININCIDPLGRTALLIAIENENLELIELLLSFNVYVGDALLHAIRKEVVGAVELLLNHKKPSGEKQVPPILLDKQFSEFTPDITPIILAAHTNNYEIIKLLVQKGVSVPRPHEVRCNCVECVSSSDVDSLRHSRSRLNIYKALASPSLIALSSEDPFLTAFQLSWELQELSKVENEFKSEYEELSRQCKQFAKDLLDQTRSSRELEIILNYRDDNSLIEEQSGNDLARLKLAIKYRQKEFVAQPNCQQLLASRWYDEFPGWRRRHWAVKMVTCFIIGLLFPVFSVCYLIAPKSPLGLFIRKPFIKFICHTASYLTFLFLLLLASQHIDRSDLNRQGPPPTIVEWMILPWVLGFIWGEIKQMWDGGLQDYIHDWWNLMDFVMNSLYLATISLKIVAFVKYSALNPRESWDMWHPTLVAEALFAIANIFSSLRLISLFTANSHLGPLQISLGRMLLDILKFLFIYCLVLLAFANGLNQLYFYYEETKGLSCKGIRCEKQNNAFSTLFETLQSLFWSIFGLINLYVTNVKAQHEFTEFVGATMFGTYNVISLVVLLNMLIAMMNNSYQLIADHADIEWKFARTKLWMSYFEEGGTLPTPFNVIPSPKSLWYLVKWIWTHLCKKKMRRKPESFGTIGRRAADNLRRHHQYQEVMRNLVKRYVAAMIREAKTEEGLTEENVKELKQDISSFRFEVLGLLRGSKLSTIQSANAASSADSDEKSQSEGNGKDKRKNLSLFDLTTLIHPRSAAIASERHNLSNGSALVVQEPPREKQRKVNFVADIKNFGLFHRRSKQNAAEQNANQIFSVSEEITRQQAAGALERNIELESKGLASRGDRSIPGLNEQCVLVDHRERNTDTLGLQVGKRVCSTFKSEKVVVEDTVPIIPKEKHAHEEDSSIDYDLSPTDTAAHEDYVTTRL", "test": "mouse TRPC4 channel activators, dose response, cell-based, HEK293 TRPC4/mu-opioid, Fluo-4 calcium (AID 434937)", "assay_type": "functional"}, "[2]": {"molecular_target": "Delta-type opioid receptor (Homo sapiens, UniProt P41143)", "sequence (P41143 whole entry)": "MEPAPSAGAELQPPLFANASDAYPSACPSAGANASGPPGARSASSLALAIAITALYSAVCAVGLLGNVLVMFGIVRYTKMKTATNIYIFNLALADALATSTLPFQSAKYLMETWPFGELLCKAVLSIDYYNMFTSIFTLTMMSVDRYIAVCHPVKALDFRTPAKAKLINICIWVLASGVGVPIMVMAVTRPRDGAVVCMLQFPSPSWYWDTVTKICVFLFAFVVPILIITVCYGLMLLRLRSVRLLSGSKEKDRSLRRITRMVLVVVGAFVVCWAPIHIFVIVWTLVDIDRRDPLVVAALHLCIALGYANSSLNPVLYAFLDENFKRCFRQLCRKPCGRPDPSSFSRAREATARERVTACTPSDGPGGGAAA", "test": "as §1, with “of OPRD1” for “of OPRM1”, “homodimerization. [Related pubchem assays (depositor defined):AID504326, AID504355, AID504692, AID504904, AID504905]” for “homodimerization.”", "assay_type": "functional"}, "[3]": {"molecular_target": "5-hydroxytryptamine receptor 5A (Homo sapiens, UniProt P47898)", "sequence (P47898 whole entry)": "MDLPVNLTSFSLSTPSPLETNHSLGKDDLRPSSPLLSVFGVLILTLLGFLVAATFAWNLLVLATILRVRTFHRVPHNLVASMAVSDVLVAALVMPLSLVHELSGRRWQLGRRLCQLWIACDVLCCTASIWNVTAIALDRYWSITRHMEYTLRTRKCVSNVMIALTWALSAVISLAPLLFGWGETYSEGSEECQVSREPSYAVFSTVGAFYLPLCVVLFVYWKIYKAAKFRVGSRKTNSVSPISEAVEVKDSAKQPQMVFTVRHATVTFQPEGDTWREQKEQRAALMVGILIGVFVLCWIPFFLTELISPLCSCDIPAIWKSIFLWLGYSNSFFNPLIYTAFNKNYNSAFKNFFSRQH", "test": "Counterscreen for agonists of OPRM1-OPRD1 heterodimerization: luminescence-based cell-based high throughput dose response assay to identify agonists of 5-hydroxytryptamine (serotonin) 5A receptor (HTR5A). [Related pubchem assays (depositor defined):AID504326, AID504355, AID504692, AID504904, AID504905]", "assay_type": "functional"}, "Escherichia coli": {"test_system": "Escherichia coli", "test": "microbe, parasite or virus in culture"}, "[4]": {"molecular_target": "T2, Endoribonuclease toxin MazF (Escherichia coli K-12, UniProt P0AE70)", "T2 sequence (P0AE70 whole entry)": "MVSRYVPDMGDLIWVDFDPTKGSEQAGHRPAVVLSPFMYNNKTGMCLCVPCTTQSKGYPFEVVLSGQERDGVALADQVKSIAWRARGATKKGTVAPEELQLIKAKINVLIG", "test": "fluorescent RNA oligo signal without MazF, dose response, counter-screen for MazEF activator project, biochemical, fluorescence, single-stranded RNase substrate (AID 588502)", "assay_type": "functional"}, "[5]": {"molecular_target": "T2, Endoribonuclease toxin MazF", "test": "MazF toxin RNase activators, dose response, biochemical, fluorescence, single-stranded RNA substrate, uHTS hits (AID 588481)", "assay_type": "functional"}, "[6]": {"molecular_target": "ALK tyrosine kinase receptor (Homo sapiens, UniProt Q9UM73)", "sequence (Q9UM73 whole entry)": "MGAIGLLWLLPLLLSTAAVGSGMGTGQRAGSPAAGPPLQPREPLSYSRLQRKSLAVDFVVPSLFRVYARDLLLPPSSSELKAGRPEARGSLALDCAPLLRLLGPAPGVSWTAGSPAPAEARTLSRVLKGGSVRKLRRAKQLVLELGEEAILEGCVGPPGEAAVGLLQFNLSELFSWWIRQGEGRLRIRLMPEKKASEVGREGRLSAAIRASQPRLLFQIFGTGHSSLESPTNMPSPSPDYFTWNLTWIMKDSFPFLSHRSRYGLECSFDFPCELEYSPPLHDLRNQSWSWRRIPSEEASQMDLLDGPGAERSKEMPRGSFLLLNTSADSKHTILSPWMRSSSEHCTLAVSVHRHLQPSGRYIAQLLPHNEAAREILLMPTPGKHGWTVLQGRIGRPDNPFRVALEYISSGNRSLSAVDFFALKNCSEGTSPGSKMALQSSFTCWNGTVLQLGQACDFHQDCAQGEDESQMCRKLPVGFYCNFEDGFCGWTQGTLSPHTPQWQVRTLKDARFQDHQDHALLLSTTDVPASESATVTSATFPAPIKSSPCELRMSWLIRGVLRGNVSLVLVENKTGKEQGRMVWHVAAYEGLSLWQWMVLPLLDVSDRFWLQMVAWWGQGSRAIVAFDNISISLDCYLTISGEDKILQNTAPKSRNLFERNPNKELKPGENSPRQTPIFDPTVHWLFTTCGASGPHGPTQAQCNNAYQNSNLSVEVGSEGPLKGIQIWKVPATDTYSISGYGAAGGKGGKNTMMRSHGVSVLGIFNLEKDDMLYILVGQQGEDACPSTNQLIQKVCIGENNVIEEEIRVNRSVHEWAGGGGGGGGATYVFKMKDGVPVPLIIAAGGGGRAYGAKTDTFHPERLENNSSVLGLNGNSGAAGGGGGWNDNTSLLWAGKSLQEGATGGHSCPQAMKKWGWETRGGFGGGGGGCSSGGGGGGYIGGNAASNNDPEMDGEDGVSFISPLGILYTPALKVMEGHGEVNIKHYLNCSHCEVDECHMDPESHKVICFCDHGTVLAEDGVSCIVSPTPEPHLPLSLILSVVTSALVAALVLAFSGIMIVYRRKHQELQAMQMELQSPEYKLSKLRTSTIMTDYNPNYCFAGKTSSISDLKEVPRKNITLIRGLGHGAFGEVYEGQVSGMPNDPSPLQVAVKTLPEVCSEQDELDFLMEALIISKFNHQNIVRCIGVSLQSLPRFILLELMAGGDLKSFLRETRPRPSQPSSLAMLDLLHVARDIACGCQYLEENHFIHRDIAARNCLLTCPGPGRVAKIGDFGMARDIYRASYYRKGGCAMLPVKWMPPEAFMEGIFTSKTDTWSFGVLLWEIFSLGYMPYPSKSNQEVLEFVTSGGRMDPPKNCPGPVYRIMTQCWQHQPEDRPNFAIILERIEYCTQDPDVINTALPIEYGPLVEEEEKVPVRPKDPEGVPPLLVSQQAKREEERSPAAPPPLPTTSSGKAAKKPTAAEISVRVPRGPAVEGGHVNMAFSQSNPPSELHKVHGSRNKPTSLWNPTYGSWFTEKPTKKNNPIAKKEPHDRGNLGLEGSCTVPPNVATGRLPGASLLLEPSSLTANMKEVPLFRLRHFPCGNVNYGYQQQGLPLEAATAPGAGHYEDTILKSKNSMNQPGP", "assay_type": "functional"}, "[7]": {"molecular_target": "Cyclin-dependent kinase 19 (Homo sapiens, UniProt Q9BWU1)", "sequence (Q9BWU1 whole entry)": "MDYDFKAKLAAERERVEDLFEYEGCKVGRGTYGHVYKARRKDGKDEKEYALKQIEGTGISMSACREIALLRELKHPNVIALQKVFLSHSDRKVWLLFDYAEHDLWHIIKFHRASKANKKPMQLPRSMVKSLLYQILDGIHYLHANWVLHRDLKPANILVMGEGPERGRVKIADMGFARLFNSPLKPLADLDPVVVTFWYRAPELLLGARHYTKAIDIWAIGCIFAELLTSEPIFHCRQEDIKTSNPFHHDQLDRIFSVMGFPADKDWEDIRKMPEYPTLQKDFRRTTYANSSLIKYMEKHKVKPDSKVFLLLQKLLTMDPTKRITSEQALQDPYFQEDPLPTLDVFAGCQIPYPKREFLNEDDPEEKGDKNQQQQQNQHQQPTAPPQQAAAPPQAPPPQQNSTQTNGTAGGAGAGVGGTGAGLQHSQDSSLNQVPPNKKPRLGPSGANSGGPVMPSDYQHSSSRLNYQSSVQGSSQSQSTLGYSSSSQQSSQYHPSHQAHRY", "test": "Navigating the Kinome. Panel member name: CDC2L6", "assay_type": "functional"}, "Cytochrome P450 2C9": {"molecular_target": "Cytochrome P450 2C9 (Homo sapiens, UniProt P11712)", "sequence (P11712 whole entry)": "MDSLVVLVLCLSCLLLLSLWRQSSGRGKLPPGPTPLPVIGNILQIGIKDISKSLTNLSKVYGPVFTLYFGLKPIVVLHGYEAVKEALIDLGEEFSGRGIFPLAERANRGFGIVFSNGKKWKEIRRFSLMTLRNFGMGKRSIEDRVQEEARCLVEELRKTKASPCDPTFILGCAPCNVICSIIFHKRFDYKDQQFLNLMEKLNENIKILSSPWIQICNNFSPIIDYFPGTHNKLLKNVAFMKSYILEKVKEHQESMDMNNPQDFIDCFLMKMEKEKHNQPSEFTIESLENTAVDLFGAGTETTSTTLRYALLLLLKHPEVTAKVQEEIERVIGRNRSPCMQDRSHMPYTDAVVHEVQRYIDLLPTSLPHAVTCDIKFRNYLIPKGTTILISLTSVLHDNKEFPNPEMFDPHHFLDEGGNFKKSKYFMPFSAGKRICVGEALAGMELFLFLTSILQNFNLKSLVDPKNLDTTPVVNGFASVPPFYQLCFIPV"}, "Vero": {"test_system": "Vero", "test": "Vero cell cytotoxicity, cytotoxicity control for flavivirus capping enzyme inhibitors (AID 588742)", "assay_type": "functional", "conditions": "Chlorocebus sabaeus"}, "[8]": {"molecular_target": "T3, Alkaline phosphatase, tissue-nonspecific isozyme (Homo sapiens, UniProt P05186)", "T3 sequence (P05186 whole entry)": "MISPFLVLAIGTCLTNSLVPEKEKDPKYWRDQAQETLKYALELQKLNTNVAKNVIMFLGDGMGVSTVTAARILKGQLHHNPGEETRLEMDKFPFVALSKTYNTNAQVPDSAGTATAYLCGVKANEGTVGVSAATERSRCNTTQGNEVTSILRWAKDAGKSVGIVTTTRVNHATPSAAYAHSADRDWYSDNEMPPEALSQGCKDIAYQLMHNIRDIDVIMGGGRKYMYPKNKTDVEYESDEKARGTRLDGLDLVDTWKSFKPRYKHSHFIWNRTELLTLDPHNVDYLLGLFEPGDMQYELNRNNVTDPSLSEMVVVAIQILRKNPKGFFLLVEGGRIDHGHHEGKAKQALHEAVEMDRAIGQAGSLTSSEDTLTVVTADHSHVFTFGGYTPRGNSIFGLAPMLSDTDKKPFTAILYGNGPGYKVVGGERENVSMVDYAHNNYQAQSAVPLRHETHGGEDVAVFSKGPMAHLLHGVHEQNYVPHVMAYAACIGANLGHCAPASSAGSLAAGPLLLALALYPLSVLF", "test": "TNAP enzyme inhibition by screening hits, dose response, selectivity assay for mouse IAP inhibitor project, biochemical, human TNAP, uHTS hits (AID 488906)", "assay_type": "functional"}, "[9]": {"molecular_target": "Intestinal-type alkaline phosphatase (Mus musculus, UniProt P24822)", "sequence (P24822 whole entry)": "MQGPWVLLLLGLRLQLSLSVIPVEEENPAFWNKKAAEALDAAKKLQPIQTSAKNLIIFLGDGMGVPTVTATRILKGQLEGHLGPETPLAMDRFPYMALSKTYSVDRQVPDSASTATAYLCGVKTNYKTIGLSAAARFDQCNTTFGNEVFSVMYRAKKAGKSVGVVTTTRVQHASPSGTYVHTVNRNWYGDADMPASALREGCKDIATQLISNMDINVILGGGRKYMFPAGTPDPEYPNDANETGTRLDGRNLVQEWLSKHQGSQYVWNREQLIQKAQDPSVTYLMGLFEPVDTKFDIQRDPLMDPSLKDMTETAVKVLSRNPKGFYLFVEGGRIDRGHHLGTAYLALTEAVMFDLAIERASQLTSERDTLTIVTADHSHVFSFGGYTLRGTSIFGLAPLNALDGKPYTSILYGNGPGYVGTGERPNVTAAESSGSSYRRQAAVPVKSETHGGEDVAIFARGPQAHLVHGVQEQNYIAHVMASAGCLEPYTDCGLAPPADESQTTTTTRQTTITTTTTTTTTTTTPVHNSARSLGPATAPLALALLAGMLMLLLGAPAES", "test": "PubChem AID 488785", "assay_type": "functional"}, "[10]": {"molecular_target": "Intestinal-type alkaline phosphatase (Homo sapiens, UniProt P09923)", "sequence (P09923 whole entry)": "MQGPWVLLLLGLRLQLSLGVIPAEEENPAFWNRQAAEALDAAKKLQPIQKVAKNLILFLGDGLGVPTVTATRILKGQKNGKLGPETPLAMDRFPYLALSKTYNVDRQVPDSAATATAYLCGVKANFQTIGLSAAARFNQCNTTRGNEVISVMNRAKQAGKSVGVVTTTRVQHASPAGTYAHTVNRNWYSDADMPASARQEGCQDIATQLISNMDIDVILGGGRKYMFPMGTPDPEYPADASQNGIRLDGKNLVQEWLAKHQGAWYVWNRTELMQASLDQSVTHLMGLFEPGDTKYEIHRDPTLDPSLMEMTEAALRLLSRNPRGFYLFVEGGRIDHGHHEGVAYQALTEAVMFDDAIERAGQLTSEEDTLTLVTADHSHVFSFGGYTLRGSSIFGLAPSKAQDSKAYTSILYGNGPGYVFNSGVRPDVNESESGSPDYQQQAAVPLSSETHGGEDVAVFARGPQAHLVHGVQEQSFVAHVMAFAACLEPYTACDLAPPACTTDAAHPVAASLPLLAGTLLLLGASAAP", "test": "inhibition of human intestinal alkaline phosphatase – biochemical, dose response (AID 488876)", "assay_type": "functional"}}, "note": "Activity calls are given as the source filed them.", "data": [{"smiles": "COc1ccc2c(Cl)c(-c3nnc(SCC(=O)c4ccccc4)n3C)sc2c1", "values": [{"measurement": "EC50", "setting": "Mu-type opioid receptor", "result": "10.3 µM (inactive)"}, {"measurement": "EC50", "setting": "[1]", "result": "0.668 µM (active)"}, {"measurement": "EC50", "setting": "[2]", "result": "26.5 µM (inactive)"}, {"measurement": "EC50", "setting": "[3]", "result": "> 92.5 µM (inactive)"}]}, {"smiles": "CC(C)n1ncc2c(C(=O)N3CCN(Cc4ccc(Br)s4)CC3)cc(C3CC3)nc21", "values": [{"measurement": "AC50", "setting": "Escherichia coli", "result": "76 µM (active)"}]}, {"smiles": "CCOC(=O)C1=C(C)N(CC(C)C)C(=O)/C1=C\\c1cccs1", "values": [{"measurement": "EC50", "setting": "[4]", "result": "> 99 µM (inactive)"}, {"measurement": "EC50", "setting": "[5]", "result": "> 99 µM (inactive)"}]}, {"smiles": "COc1ccccc1/N=C/c1c(C)c(C#N)c2nc3ccccc3n2c1O", "values": [{"measurement": "EC50", "setting": "[4]", "result": "> 99 µM (inactive)"}, {"measurement": "EC50", "setting": "[5]", "result": "> 99 µM (inactive)"}]}, {"smiles": "CCOc1ccc(-c2nc3ccccn3c2-c2ccnc(Nc3cccc(CCN(C)C)c3)n2)cc1", "values": [{"measurement": "Ki", "setting": "[6]", "result": "0.316 µM (active)"}, {"measurement": "Ki", "setting": "[7]", "result": "6.31 µM (active)"}]}, {"smiles": "O=C1/C(=C/c2ccc3c(c2)OCO3)SC(=S)N1CCC(=O)N(CCO)c1ccccc1", "values": [{"measurement": "EC50", "setting": "[4]", "result": "90.4 µM (inactive)"}, {"measurement": "EC50", "setting": "[5]", "result": "> 99 µM (inactive)"}]}, {"smiles": "Cc1cc(C)c(NC(=O)NC(=O)c2ccc(F)cc2)c(C)n1", "values": [{"measurement": "AC50", "setting": "Cytochrome P450 2C9", "result": "inconclusive"}]}, {"smiles": "Cc1ccc(-c2cc(C(=O)NCc3ccco3)c3ccccc3n2)s1", "values": [{"measurement": "CC50", "setting": "Vero", "result": "> 40 µM (active)"}]}, {"smiles": "O=C(CSc1nnc2sc3ccccc3n12)NCc1ccco1", "values": [{"measurement": "AC50", "setting": "Cytochrome P450 2C9", "result": "inconclusive"}]}, {"smiles": "N#Cc1c(SCC(=O)Nc2nc3ccccc3s2)sc2c(O)cc(O)nc12", "values": [{"measurement": "IC50", "setting": "[8]", "result": "> 100 µM (inactive)"}, {"measurement": "IC50", "setting": "[9]", "result": "18.8 µM (active)"}, {"measurement": "IC50", "setting": "[10]", "result": "> 100 µM (inactive)"}]}]}
